For 50 compounds, EC50 results are on record in patent US11505558B1, “Antiviral heterocyclic compounds” (Enanta Pharmaceuticals, Inc., priority 2019, dated 2022).

The assay deals with genotype A, "Long" strain RSV. Nature of the assay: RSV-A assay (CPE, ATPlite readout in Hep-2 cells). It is filed as cell-based. The note with it: human respiratory syncytial virus, HEp-2, Hep-2 cells, genotype A "Long" strain RSV, MOI 0.1; read-out: Human RSV-A (“Long” strain) EC50. An outline of the steps: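 Hep-2 cells (8,000/well) received 2-fold serial compound dilutions in duplicate and RSV Long strain at MOI 0.1. After 5 days' incubation, cell health was read as ATP by ATPlite luminescence, with virus-only and uninfected controls defining max and minimum CPE; EC50 reported.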
In general terms: ATP-based viability assays read luminescence as a measure of living cells.
Consider `C[C@]1(C(N)=O)COc2c1cc([C@@](O)(CNC(=O)c1cc(Nc3ccccn3)c3ncccc3c1)C(F)(F)F)nc2-c1ccc(F)cc1` [Example 338], for which the EC50 is less than 200 nM.
In the case of `C[C@]1(C(N)=O)COc2c1cc([C@@](O)(CNC(=O)c1cc(Nc3ccncn3)c3ncccc3c1)C(F)(F)F)nc2-c1ccc(F)cc1` [Example 343] it was less than 200 nM.
In the case of `Cc1cc(C)nc(Nc2cc(C(=O)NC[C@](O)(c3cc4c(c(-c5ccc(F)cc5)n3)OC[C@]4(C)C(N)=O)C(F)(F)F)cc3cccnc23)n1` [Example 344] it was less than 200 nM; in that of `COc1cc(Nc2cc(C(=O)NC[C@](O)(c3cc4c(c(-c5ccc(F)cc5)n3)OC[C@]4(C)C(N)=O)C(F)(F)F)cc3cccnc23)nc(OC)n1` [Example 345], greater than 200 nM; in that of `Cc1cnc2c(Nc3ncccn3)cc(C(=O)NC[C@](O)(c3cc4c(c(-c5ccc(F)cc5)n3)OC[C@]4(C)C(N)=O)C(F)(F)F)cc2c1` [Example 346], less than 200 nM.
The result for `C[C@]1(C(N)=O)COc2c1cc([C@@](O)(CNC(=O)c1cc(Nc3cccnn3)c3ncccc3c1)C(F)(F)F)nc2-c1ccc(F)cc1` [Example 347] reads less than 200 nM; that for `C[C@]1(C(N)=O)COc2c1cc([C@@](O)(CNC(=O)c1cc(Nc3ccnnc3)c3ncccc3c1)C(F)(F)F)nc2-c1ccc(F)cc1` [Example 348], less than 200 nM.
Regarding `C[C@]1(C(N)=O)COc2c1cc([C@@](O)(CNC(=O)c1cc(Nc3ncc(F)cn3)c3ncccc3c1)C(F)(F)F)nc2-c1ccc(F)cc1` [Example 349], the EC50 is less than 200 nM.
`C[C@]1(C(N)=O)COc2c1cc([C@@](O)(CNC(=O)c1cc(-c3ccncc3)c3ncccc3c1)C(F)(F)F)nc2-c1ccc(F)cc1` [Example 351]: the concentration for a half-maximal effect (EC50) is less than 200 nM.
In the case of `C[C@]1(C(N)=O)COc2c1cc([C@@](O)(CNC(=O)c1cc(-c3cnc(N)nc3)c3ncccc3c1)C(F)(F)F)nc2-c1ccc(F)cc1` [Example 352] it was less than 200 nM.
Regarding `C[C@]1(C(N)=O)COc2c1cc([C@@](O)(CNC(=O)c1cc(-c3ccccn3)c3ncccc3c1)C(F)(F)F)nc2-c1ccc(F)cc1` [Example 353], the concentration giving a half-maximal response (EC50) is less than 200 nM.
In the case of `C[C@]1(C(N)=O)COc2c1cc([C@@](O)(CNC(=O)c1cc(-c3ncccn3)c3ncccc3c1)C(F)(F)F)nc2-c1ccc(F)cc1` [Example 354] it was greater than 200 nM; in that of `CC(C)(C)OC(=O)NCCOc1cc(C(=O)NC[C@](O)(c2cc3c(c(-c4ccc(F)cc4)n2)OC[C@]3(C)C(N)=O)C(F)(F)F)cc2cccnc12` [Example 355], greater than 200 nM.
In the case of `C[C@]1(C(N)=O)COc2c1cc([C@@](O)(CNC(=O)c1cc(OCCN)c3ncccc3c1)C(F)(F)F)nc2-c1ccc(F)cc1` [Example 356] it was greater than 200 nM; in that of `CC(=O)NCCOc1cc(C(=O)NC[C@](O)(c2cc3c(c(-c4ccc(F)cc4)n2)OC[C@]3(C)C(N)=O)C(F)(F)F)cc2cccnc12` [Example 357], greater than 200 nM; in that of `C[C@]1(C(N)=O)COc2c1cc([C@@](O)(CNC(=O)c1cc(OCCNS(C)(=O)=O)c3ncccc3c1)C(F)(F)F)nc2-c1ccc(F)cc1` [Example 358], greater than 200 nM.
In the case of `C[C@]1(C(N)=O)COc2c1cc([C@@](O)(CNC(=O)c1cc(OCCNC(N)=O)c3ncccc3c1)C(F)(F)F)nc2-c1ccc(F)cc1` [Example 359], the EC50 was greater than 200 nM.
For `C[C@]1(C(N)=O)COc2c1cc([C@@](O)(CNC(=O)c1cc(OCCO)c3ncccc3c1)C(F)(F)F)nc2-c1ccc(F)cc1` [Example 360], the EC50 is greater than 200 nM.
The result for `COc1nccc2cc(C(=O)NC[C@](O)(c3cc4c(c(-c5ccc(F)cc5)n3)OC[C@]4(C)C(N)=O)C(F)(F)F)ccc12` [Example 362] reads greater than 200 nM.
The result for `C[C@]1(C(N)=O)COc2c1cc([C@@](O)(CNC(=O)c1cc(OC(F)(F)C(N)=O)c3ncccc3c1)C(F)(F)F)nc2-c1ccc(F)cc1` [Example 365] reads less than 200 nM.
In the case of `Cc1cnc2c(OCC(N)=O)cc(C(=O)NC[C@](O)(c3cc4c(c(-c5ccc(F)c(Cl)c5)n3)OC[C@]4(C)C(N)=O)C(F)(F)F)cc2c1` [Example 367] it was less than 200 nM; in that of `CCc1cnc2c(OCC(N)=O)cc(C(=O)NC[C@](O)(c3cc4c(c(-c5ccc(F)cc5)n3)OC[C@]4(C)C(N)=O)C(F)(F)F)cc2c1` [Example 368], less than 200 nM; in that of `CCc1cnc2c(OCC(N)=O)cc(C(=O)NC[C@](O)(c3cc4c(c(-c5ccc(F)c(Cl)c5)n3)OC[C@]4(C)C(N)=O)C(F)(F)F)cc2c1` [Example 369], less than 200 nM.
Consider `CC1(NC(=O)COc2cc(C(=O)NC[C@](O)(c3cc4c(c(-c5ccc(F)cc5)n3)OC[C@]4(C)C(N)=O)C(F)(F)F)cc3cccnc23)CC1` [Example 370], for which the EC50 is greater than 200 nM.
The result for `C[C@]1(C(N)=O)COc2c1cc([C@@](O)(CNC(=O)c1cc(OCC(=O)Nc3ccccc3)c3ncccc3c1)C(F)(F)F)nc2-c1ccc(F)cc1` [Example 371] reads less than 200 nM.
In the case of `CNC(=O)COc1cc(C(=O)NC[C@](O)(c2cc3c(c(-c4ccc(F)cc4)n2)OC[C@]3(C)C(N)=O)C(F)(F)F)cc2cccnc12` [Example 372] it was less than 200 nM.
As for `COCCNC(=O)COc1cc(C(=O)NC[C@](O)(c2cc3c(c(-c4ccc(F)cc4)n2)OC[C@]3(C)C(N)=O)C(F)(F)F)cc2cccnc12` [Example 375], the EC50 was greater than 200 nM.
In the case of `C[C@]1(C(N)=O)COc2c1cc([C@@](O)(CNC(=O)c1cc(OCC(=O)NC3CC3)c3ncccc3c1)C(F)(F)F)nc2-c1ccc(F)cc1` [Example 376], the EC50 was greater than 200 nM.
Consider `CC(C)(O)CNC(=O)COc1cc(C(=O)NC[C@](O)(c2cc3c(c(-c4ccc(F)cc4)n2)OC[C@]3(C)C(N)=O)C(F)(F)F)cc2cccnc12` [Example 377], for which the EC50 was greater than 200 nM.
On to `C[C@]1(C(N)=O)COc2c1cc([C@@](O)(CNC(=O)c1cc(OCC(=O)NC[C@H](O)CO)c3ncccc3c1)C(F)(F)F)nc2-c1ccc(F)cc1` [Example 378], for which the EC50 is greater than 200 nM.
The result for `C[C@]1(C(N)=O)COc2c1cc([C@@](O)(CNC(=O)c1cc(OCC(=O)NC[C@@H](O)CO)c3ncccc3c1)C(F)(F)F)nc2-c1ccc(F)cc1` [Example 379] reads greater than 200 nM; that for `C[C@]1(C(N)=O)COc2c1cc([C@@](O)(CNC(=O)c1cc(OC3(C(N)=O)CC3)c3ncccc3c1)C(F)(F)F)nc2-c1ccc(F)cc1` [Example 381], greater than 200 nM.
Regarding `C[C@]1(C(N)=O)COc2c1cc([C@@](O)(CNC(=O)c1cc(OCC(N)=O)c3ncccc3c1)C(F)(F)F)nc2-c1ccc(F)c(Cl)c1` [Example 382], the half-maximal effective concentration (EC50) was less than 200 nM.
For `CC(Oc1cc(C(=O)NC[C@](O)(c2cc3c(c(-c4ccc(F)cc4)n2)OC[C@]3(C)C(N)=O)C(F)(F)F)cc2cccnc12)C(N)=O` (some centres unmarked) [Example 383], the EC50 was greater than 200 nM.
In the case of `CNc1cc(C(=O)NC[C@](O)(c2cc3c(c(-c4ccc(F)cc4)n2)OC[C@]3(C)C(N)=O)C(F)(F)F)cc2cccnc12` [Example 385] it was less than 200 nM; in that of `C[C@]1(C(N)=O)COc2c1cc([C@@](O)(CNC(=O)c1cc(Oc3ccccn3)c3ncccc3c1)C(F)(F)F)nc2-c1ccc(F)cc1` [Example 386], greater than 200 nM; in that of `C[C@]1(C(N)=O)COc2c1cc([C@@](O)(CNC(=O)c1cc(Oc3ncco3)c3ncccc3c1)C(F)(F)F)nc2-c1ccc(F)cc1` [Example 389], less than 200 nM.
The result for `Cc1nc(COc2cc(C(=O)NC[C@](O)(c3cc4c(c(-c5ccc(F)cc5)n3)OC[C@]4(C)C(N)=O)C(F)(F)F)cc3cccnc23)co1` [Example 391] reads greater than 200 nM; that for `C[C@]1(C(N)=O)COc2c1cc([C@@](O)(CNC(=O)c1cc(NC(=O)C3CC3)c3ncccc3c1)C(F)(F)F)nc2-c1ccc(F)cc1` [Example 392], less than 200 nM; that for `C[C@]1(C(N)=O)COc2c1cc([C@@](O)(CNC(=O)c1cc(NS(C)(=O)=O)c3ncccc3c1)C(F)(F)F)nc2-c1ccc(F)cc1` [Example 394], greater than 200 nM.
In the case of `C[C@]1(C(N)=O)COc2c1cc([C@@](O)(CNC(=O)c1cc(NS(=O)(=O)C3CC3)c3ncccc3c1)C(F)(F)F)nc2-c1ccc(F)cc1` [Example 395] it was greater than 200 nM; in that of `C[C@]1(C(N)=O)COc2c1cc([C@@](O)(CNC(=O)c1cc(NC(=O)C(F)F)c3ncccc3c1)C(F)(F)F)nc2-c1ccc(F)cc1` [Example 396], less than 200 nM; in that of `C[C@]1(C(N)=O)COc2c1cc([C@@](O)(CNC(=O)c1cc(NC(=O)[C@H]3CCN3)c3ncccc3c1)C(F)(F)F)nc2-c1ccc(F)cc1` [Example 399], greater than 200 nM.
Turning to `C[C@]1(C(N)=O)COc2c1cc([C@@](O)(CNC(=O)c1cc(NC(=O)[C@@H]3CCN3)c3ncccc3c1)C(F)(F)F)nc2-c1ccc(F)cc1` [Example 400], the EC50 was greater than 200 nM.
The result for `C[C@]1(C(N)=O)COc2c1cc([C@@](O)(CNC(=O)c1cc(NC(=O)C3CNC3)c3ncccc3c1)C(F)(F)F)nc2-c1ccc(F)cc1` [Example 401] reads greater than 200 nM.
The result for `Cc1ncc(C(=O)Nc2cc(C(=O)NC[C@](O)(c3cc4c(c(-c5ccc(F)cc5)n3)OC[C@]4(C)C(N)=O)C(F)(F)F)cc3cccnc23)[nH]1` [Example 402] reads less than 200 nM; that for `C[C@]1(C(N)=O)COc2c1cc([C@@](O)(CNC(=O)c1cc(NC(=O)c3ncc[nH]3)c3ncccc3c1)C(F)(F)F)nc2-c1ccc(F)cc1` [Example 403], less than 200 nM; that for `C[C@]1(C(N)=O)COc2c1cc([C@@](O)(CNC(=O)c1cc(NC(=O)c3cnn[nH]3)c3ncccc3c1)C(F)(F)F)nc2-c1ccc(F)cc1` [Example 404], greater than 200 nM.
In the case of `C[C@@H](O)COc1ccc2cc(C(=O)NC[C@](O)(c3cc4c(c(-c5ccc(F)cc5)n3)OC[C@]4(C)C(N)=O)C(F)(F)F)cc(OC3CC3)c2n1` [Example 405] it was greater than 200 nM; in that of `CC(C)(O)c1ccc2cc(C(=O)NC[C@](O)(c3cc4c(c(-c5ccc(F)cc5)n3)OC[C@]4(C)C(N)=O)C(F)(F)F)cc(OC3CC3)c2n1` [Example 407], greater than 200 nM.

In general, EC50 refers to the concentration needed to bring the measured effect to its halfway point.
